Assay results reported in patent US20230086702A1, “SUBSTITUTED 2-AMINO-PYRAZOLYL-[1,2,4]TRIAZOLO[1,5A]PYRIDINE DERIVATIVES AND USE THEREOF” (The Johns Hopkins University, priority 2019, published 2023).
pIC50: −log10 of the molar value.

Assays:
LZK = molecular target: T1, LZK (Homo sapiens, UniProt O43283); experiment: LZK biochemical assay (TR-FRET, MKK7 phosphorylation); details: LZK catalytic domain, MKK7 substrate, 15 μM ATP
T1 construct: 10 nM LZK, catalytic domain, Carna Biosiences in assay buffer; purchased Carna Biosciences ('Carna Biosiences' [sic])
T1 sequence (O43283 168-409 limits assumed): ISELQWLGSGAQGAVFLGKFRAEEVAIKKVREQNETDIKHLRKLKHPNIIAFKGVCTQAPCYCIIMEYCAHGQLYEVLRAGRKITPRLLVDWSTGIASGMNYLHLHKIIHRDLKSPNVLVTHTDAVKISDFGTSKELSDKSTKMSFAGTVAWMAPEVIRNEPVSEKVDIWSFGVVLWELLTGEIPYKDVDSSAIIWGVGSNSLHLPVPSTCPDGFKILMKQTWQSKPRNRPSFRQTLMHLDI

DLK = molecular target: T2, DLK (Homo sapiens, UniProt Q12852); experiment: DLK biochemical assay (TR-FRET, MKK7 phosphorylation); details: DLK catalytic domain, MKK7 substrate, 60 μM ATP
T2 construct: 10 nM DLK, catalytic domain, Carna Biosiences; purchased Carna Biosciences ('Carna Biosiences' [sic])
T2 sequence (Q12852 125-366 limits assumed): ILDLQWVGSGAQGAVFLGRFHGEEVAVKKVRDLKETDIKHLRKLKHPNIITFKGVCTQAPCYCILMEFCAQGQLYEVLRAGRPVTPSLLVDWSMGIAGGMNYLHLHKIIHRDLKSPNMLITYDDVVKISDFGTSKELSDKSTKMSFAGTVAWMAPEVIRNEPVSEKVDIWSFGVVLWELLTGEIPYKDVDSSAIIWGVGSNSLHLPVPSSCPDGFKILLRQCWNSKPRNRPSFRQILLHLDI
Outline: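 Human DLK activity measured as phosphorylation of His-tagged MKK7 at T275/S277, detected by TR-FRET between Eu-anti-phospho-MKK7 donor (excitation 340 nm) and XL665-anti-His acceptor (665 nm). Signal taken as the XL665/Eu ratio. Detection buffer: 25 mM Tris/HCl pH 7.5, 100 mM EDTA, 100 mM NaCl, 200 mM KF, 0.01% Tween 20.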

CCC(c1ccc(OC(F)(F)F)nc1)n1cc(-c2cc(C(=O)N[C@@H](C)CO)c3nc(N)nn3c2)cn1 (mixture of isomers) [Example I-157, 2-Amino-N-[(2S)-1-hydroxypropan-2-yl]-6-(1-{1-[6-(trifluoromethoxy)pyridin-3-yl]propyl}-1H-pyrazol-4-yl)[1,2,4]triazolo[1,5-a]pyridine-8-carboxamide]
pIC50 (LZK): 7.89
pIC50 (DLK): 8.24

CC(C)C(c1ccc(F)cc1)n1cc(-c2cc(C(=O)N[C@@H](C)CO)c3nc(N)nn3c2)cn1 (mixture of isomers) [Example I-160, 2-Amino-6-{1-[1-(4-fluorophenyl)-2-methylpropyl]-1H-pyrazol-4-yl}-N-[(2S)-1-hydroxypropan-2-yl][1,2,4]triazolo[1,5-a]pyridine-8-carboxamide]
pIC50 (LZK): 6.89
pIC50 (DLK): 8.37

CCC(c1ccc(C(F)(F)F)nc1)n1cc(-c2cc(C(=O)N[C@H]3CCOC3)n3nc(N)nc3c2)cn1 (mixture of isomers) [Example I-177, 2-Amino-N-[(3S)-tetrahydrofuran-3-yl]-7-(1-{1-[6-(trifluoromethyl)pyridin-3-yl]propyl}-1H-pyrazol-4-yl)[1,2,4]triazolo[1,5-a]pyridine-5-carboxamide]
pIC50 (LZK): 7.74
pIC50 (DLK): 8.59

CC(C)C(c1ccc(C(F)(F)F)nc1)n1cc(-c2cc(C(=O)N[C@H]3CCOC3)n3nc(N)nc3c2)cn1 (mixture of isomers) [Example I-180, 2-Amino-7-(1-{2-methyl-1-[6-(trifluoromethyl)pyridin-3-yl]propyl}-1H-pyrazol-4-yl)-N-[(3S)-tetrahydrofuran-3-yl][1,2,4]triazolo[1,5-a]pyridine-5-carboxamide]
pIC50 (LZK): 8.21
pIC50 (DLK): 8.80

Nc1nc2cc(-c3cnn(C(c4ccc(C(F)(F)F)nc4)C4CCOCC4)c3)cc(C(=O)N[C@H]3CCOC3)n2n1 (mixture of isomers) [Example I-183, 2-Amino-N-[(3S)-tetrahydrofuran-3-yl]-7-(1-{tetrahydro-2H-pyran-4-yl[6-(trifluoromethyl)pyridin-3-yl]methyl}-1H-pyrazol-4-yl)[1,2,4]triazolo[1,5-a]pyridine-5-carboxamide]
pIC50 (LZK): 8.22
pIC50 (DLK): 8.77

CCC(c1ccc(OCC(F)(F)F)nc1)n1cc(-c2cc(C(=O)N[C@H]3CCOC3)n3nc(N)nc3c2)cn1 (mixture of isomers) [Example I-186]
pIC50 (LZK): 7.80
pIC50 (DLK): 8.21

Nc1nc2c(C(=O)NC3CNC(=O)C3)cc(-c3cnn(Cc4ccc(F)cc4)c3)cn2n1 (racemic) [Example I-136, 2-Amino-6-[1-(4-fluorobenzyl)-1H-pyrazol-4-yl]-N-(5-oxopyrrolidin-3-yl)[1,2,4]triazolo[1,5-a]pyridine-8-carboxamide]
pIC50 (LZK): 6.68
pIC50 (DLK): 7.64

CC(CF)NC(=O)c1cc(-c2cnn(CC3CC3)c2)cn2nc(N)nc12 (racemic) [Example I-137, 2-Amino-6-[1-(cyclopropylmethyl)-1H-pyrazol-4-yl]-N-[1-fluoropropan-2-yl][1,2,4]triazolo[1,5-a]pyridine-8-carboxamide]
pIC50 (LZK): 6.82
pIC50 (DLK): 6.85

CC(CF)NC(=O)c1cc(-c2cnn(Cc3cccc4cn[nH]c34)c2)cn2nc(N)nc12 (racemic) [Example I-138, 2-Amino-N-(1-fluoropropan-2-yl)-6-{1-[(1H-indazol-7-yl)methyl]-1H-pyrazol-4-yl} [1,2,4]triazolo[1,5-a]pyridine-8-carboxamide]
pIC50 (LZK): 6.72
pIC50 (DLK): 8.52

CCC(c1ccc(C(F)(F)F)nc1)n1cc(-c2cc(C(=O)NC(C)(C)CO)c3nc(N)nn3c2)cn1 (racemic) [Example I-163, 2-Amino-N-(1-hydroxy-2-methylpropan-2-yl)-6-(1-{1-[6-(trifluoromethyl)pyridin-3-yl]propyl}-1H-pyrazol-4-yl)[1,2,4]triazolo[1,5-a]pyridine-8-carboxamide]
pIC50 (LZK): 7.52
pIC50 (DLK): 8.12

CC(C)(CO)NC(=O)c1cc(-c2cnn(C(c3ccc(C(F)(F)F)nc3)C3CCOCC3)c2)cn2nc(N)nc12 (racemic) [Example I-166, 2-Amino-N-(1-hydroxy-2-methylpropan-2-yl)-6-(1-{tetrahydro-2H-pyran-4-yl[6-(trifluoromethyl)pyridin-3-yl]methyl}-1H-pyrazol-4-yl)[1,2,4]triazolo[1,5-a]pyridine-8-carboxamide]
pIC50 (LZK): 7.70
pIC50 (DLK): 8.38

CCC(c1ccc(OC(F)(F)F)nc1)n1cc(-c2cc(C(=O)NC(C)(C)CO)c3nc(N)nn3c2)cn1 (racemic) [Example I-169, 2-Amino-N-(1-hydroxy-2-methylpropan-2-yl)-6-(1-{1-[6-(trifluoromethoxy)pyridin-3-yl]propyl}-1H-pyrazol-4-yl)[1,2,4]triazolo[1,5-a]pyridine-8-carboxamide]
pIC50 (LZK): 7.15
pIC50 (DLK): 7.59

CC(C)C(c1cncc(Cl)c1)n1cc(-c2cc(C(=O)NC(C)(C)CO)c3nc(N)nn3c2)cn1 (racemic) [Example I-172, 2-Amino-6-{1-[1-(5-chloropyridin-3-yl)-2-methylpropyl]-1H-pyrazol-4-yl}-N-(1-hydroxy-2-methylpropan-2-yl)[1,2,4]triazolo[1,5-a]pyridine-8-carboxamide]
pIC50 (LZK): 7.12
pIC50 (DLK): 8.40

CC[C@H](C)NC(=O)c1cc(-c2cnn(C3CCN(CC)CC3)c2)cn2nc(N)nc12 (single isomer, unassigned) [Example I-6]
pIC50 (LZK): 8.17
pIC50 (DLK): 7.77

CC[C@H](C)NC(=O)c1cc(-c2cnn(C3CCN(C(C)C)CC3)c2)cn2nc(N)nc12 (single isomer, unassigned) [Example I-7]
pIC50 (LZK): 8.42
pIC50 (DLK): 7.49

CC[C@H](C)NC(=O)c1cc(-c2cnn(C3CCN(C4COC4)CC3)c2)cn2nc(N)nc12 (single isomer, unassigned) [Example I-8]
pIC50 (LZK): 8.03
pIC50 (DLK): 7.17

CC[C@H](C)NC(=O)c1cc(-c2cnn(C3CCN(CC4COC4)CC3)c2)cn2nc(N)nc12 (single isomer, unassigned) [Example I-9]
pIC50 (LZK): 8.16
pIC50 (DLK): 7.10

CC[C@H](C)NC(=O)c1cc(-c2cnn(C3CCN(Cc4ccccc4)CC3)c2)cn2nc(N)nc12 (single isomer, unassigned) [Example I-10]
pIC50 (LZK): 8.05
pIC50 (DLK): 7.62

CC[C@H](C)NC(=O)c1cc(-c2cnn(C3CCN(C(C)=O)CC3)c2)cn2nc(N)nc12 (single isomer, unassigned) [Example I-11]
pIC50 (LZK): 7.85
pIC50 (DLK): 7.09

CC[C@H](C)NC(=O)c1cc(-c2cnn(C3CCCC3)c2)cc2nc(N)nn12 (single isomer, unassigned) [Example I-12]
pIC50 (LZK): 7.15
pIC50 (DLK): 6.92

CC[C@H](C)NC(=O)c1cc(-c2cnn(C3CCc4ccccc43)c2)cn2nc(N)nc12 (single isomer, unassigned) [Example I-14]
pIC50 (LZK): 8.33
pIC50 (DLK): 7.92

CC[C@H](C)NC(=O)c1cc(-c2cnn(C3CCc4ccccc43)c2)cn2nc(N)nc12 (single isomer, unassigned) [Example I-15]
pIC50 (LZK): 8.11
pIC50 (DLK): 7.51

CC[C@H](C)NC(=O)c1cc(-c2cnn(C3CCOc4ccccc43)c2)cc2nc(N)nn12 (single isomer, unassigned) [Example I-17]
pIC50 (LZK): 8.33
pIC50 (DLK): 7.66

CC[C@H](C)NC(=O)c1cc(-c2cnn(C3CCOc4ccccc43)c2)cc2nc(N)nn12 (single isomer, unassigned) [Example I-18]
pIC50 (LZK): 8.22
pIC50 (DLK): 7.33

CC[C@H](C)NC(=O)c1cc(-c2cnn(Cc3cccc4cn[nH]c34)c2)cn2nc(N)nc12 (single isomer, unassigned) [Example I-23]
pIC50 (LZK): 7.25
pIC50 (DLK): 8.57

CC[C@H](C)NC(=O)c1cc(-c2cnn(C(c3ccccc3)C(C)C)c2)cc2nc(N)nn12 (single isomer, unassigned) [Example I-25]
pIC50 (LZK): 6.85
pIC50 (DLK): 7.64

CC[C@H](C)NC(=O)c1cc(-c2cnn([C@H](c3ccccc3)C(C)C)c2)cc2nc(N)nn12 (single isomer, unassigned) [Example I-26]
pIC50 (LZK): 7.74
pIC50 (DLK): 8.96

CC[C@H](C)NC(=O)c1cc(-c2cnn(C(c3ccccc3)C3(C)CC3)c2)cn2nc(N)nc12 (single isomer, unassigned) [Example I-29]
pIC50 (LZK): 6.77
pIC50 (DLK): 8.64

CC[C@H](C)NC(=O)c1cc(-c2cnn(C(c3ccccc3)C3(C)CC3)c2)cn2nc(N)nc12 (single isomer, unassigned) [Example I-30]
pIC50 (LZK): 6.51
pIC50 (DLK): 6.85

CC[C@H](C)NC(=O)c1cc(-c2cnn(C(c3ccccc3)C3CC(F)(F)C3)c2)cn2nc(N)nc12 (single isomer, unassigned) [Example I-32]
pIC50 (LZK): 6.74
pIC50 (DLK): 7.25

CC[C@H](C)NC(=O)c1cc(-c2cnn(C(c3ccccc3)C3CC(F)(F)C3)c2)cn2nc(N)nc12 (single isomer, unassigned) [Example I-33]
pIC50 (LZK): 7.23
pIC50 (DLK): 8.66
